Literature values as cited in patent publication US20080248140A1, “COMPOSITION FOR SUPPORTING RESTFUL SLEEP” (priority 2007, published 2008).

Assays:
[1] = system: GABA(A) receptor; conditions: activity produced by muscimol; Yuan et al. 2004
[2] = normal subjects (Mayer et al. 1996)

SMILES | neural activity in the brainstem [1] | quality of sleep and post-sleep restfulness [2]
CC1=C2[C@H](/C=C(\C)C(=O)O)CC[C@@H](C)[C@H]2CC1 [Valerinic acid] | decrease neural activity in the brainstem | –
C/C1=C2/[N-][C@H]([C@H](CC(N)=O)[C@@]2(C)CCC(=O)NC[C@@H](C)OP(=O)([O-])O[C@H]2[C@@H](O)[C@@H](n3cnc4cc(C)c(C)cc43)O[C@@H]2CO)[C@]2(C)N=C(/C(C)=C3N=C(/C=C4N=C1[C@@H](CCC(N)=O)C\4(C)C)[C@@H](CCC(N)=O)[C@]\3(C)CC(N)=O)[C@@H](CCC(N)=O)[C@]2(C)CC(N)=O.[CH3-].[Co+3] [Methylcobalamin] | – | increases in the quality of sleep and feelings of post-sleep restfulness
